Assay results taken from PubChem BioAssay (NCI).
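Step 1: Grow cells in 96-well plates. Step 2: Expose to compound for 48 hours at 5 concentrations. Step 3: Interpolate endpoints linearly; if unreached, use highest concentration. GI50: concentration for 50% inhibition of growth. TGI marks complete inhibition of growth.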 Where a SMILES comes first, the peptide text is derived from it. Bridges are numbered along the chain shown (N, C = ends). [ ]: non-standard residue; d: D form. The star is where a group is joined. Cbz = O=C(OCc1ccccc1)*; Dab = NCC[CH](N)C(=O)O; Bn = c1ccc(C*)cc1

What was measured:
Test in all cases: growth of human tumour cells (NCI), 48 h
[1] = tested on: 786-0 renal
[2] = tested on: A498 renal
[3] = tested on: A549 NSCLC
[4] = tested on: ACHN renal
[5] = tested on: BT-549 breast
[6] = tested on: CAKI-1 renal
[7] = tested on: COLO 205 colon
[8] = tested on: DU-145 prostate
[9] = tested on: EKVX NSCLC
[10] = tested on: HCT-116 colon
[11] = tested on: HCT-15 colon
[12] = tested on: HL-60(TB) leukemia
[13] = tested on: HOP-62 NSCLC
[14] = tested on: HS 578T breast
[15] = tested on: HT29 colon
[16] = tested on: IGROV1 ovarian
[17] = tested on: K-562 leukemia
[18] = tested on: KM12 colon
[19] = tested on: LOX IMVI melanoma
[20] = tested on: MCF7 breast
[21] = tested on: MDA-MB-231 breast
[22] = tested on: MDA-MB-435
[23] = tested on: MOLT-4 leukemia
[24] = tested on: NCI-H226 lung
[25] = tested on: NCI-H23 lung
[26] = tested on: NCI-H460 lung
[27] = tested on: NCI-H522 lung
[28] = tested on: NCI/ADR-RES ovarian
[29] = tested on: OVCAR-3 ovarian
[30] = tested on: OVCAR-5 ovarian
[31] = tested on: OVCAR-8 ovarian
[32] = tested on: PC-3 prostate
[33] = tested on: RPMI-8226 leukemia
[34] = tested on: RXF 393 renal
[35] = tested on: SF-268 CNS
[36] = tested on: SF-295 CNS
[37] = tested on: SF-539 CNS
[38] = tested on: SK-MEL-2 melanoma
[39] = tested on: SK-MEL-28 melanoma
[40] = tested on: SK-MEL-5 melanoma
[41] = tested on: SN12C renal
[42] = tested on: SNB-19 CNS
[43] = tested on: SNB-75 CNS
[44] = tested on: SR leukemia
[45] = tested on: SW-620 colon
[46] = tested on: TK-10 renal
[47] = tested on: U251 CNS
[48] = tested on: UACC-257 melanoma
[49] = tested on: UACC-62 melanoma
[50] = tested on: UO-31 renal
[51] = tested on: HOP-92 NSCLC

Question: What does the source list for `COc1c2c3ccccc3nc-2n(C)c2ccccc12`?
Answer: GI50 [1]: 6.54 µM; TGI [1]: 40.5 µM; GI50 [2]: 10.1 µM; TGI [2]: 24.8 µM; GI50 [3]: 14.3 µM; TGI [3]: > 100 µM; GI50 [4]: 3.33 µM; TGI [4]: 19.4 µM; GI50 [5]: 18.8 µM; TGI [5]: 43.5 µM; GI50 [6]: 19.2 µM; TGI [6]: > 100 µM; GI50 [7]: 6.73 µM; TGI [7]: 49.4 µM; GI50 [8]: 9.48 µM; TGI [8]: 45.5 µM; GI50 [9]: 13.7 µM; TGI [9]: 57.2 µM; GI50 [10]: 4.18 µM; TGI [10]: 81.7 µM; GI50 [11]: 5.29 µM; TGI [11]: 50.6 µM; GI50 [12]: 9.88 µM; TGI [12]: 47.6 µM; GI50 [13]: 8.61 µM; TGI [13]: 33.6 µM; GI50 [14]: 42 µM; TGI [14]: > 100 µM; GI50 [15]: 4.75 µM; TGI [15]: > 100 µM; GI50 [16]: 24.3 µM; TGI [16]: > 100 µM; GI50 [17]: 11.5 µM; TGI [17]: > 100 µM; GI50 [18]: 8.63 µM; TGI [18]: > 100 µM; GI50 [19]: 4.73 µM; TGI [19]: 26.3 µM; GI50 [20]: 4.31 µM; TGI [20]: 33.1 µM; GI50 [21]: 7.03 µM; TGI [21]: 40.4 µM; GI50 [22]: 13.9 µM; TGI [22]: 38.3 µM; GI50 [23]: 4.7 µM; TGI [23]: > 100 µM; GI50 [24]: 6.77 µM; TGI [24]: 74.3 µM; GI50 [25]: 11.7 µM; TGI [25]: 33.6 µM; GI50 [26]: 6.26 µM; TGI [26]: 32.1 µM; GI50 [27]: 49.2 µM; TGI [27]: > 100 µM; GI50 [28]: 7.33 µM; TGI [28]: 34.8 µM; GI50 [29]: 21 µM; TGI [29]: > 100 µM; GI50 [30]: 8.43 µM; TGI [30]: > 100 µM; GI50 [31]: 25.7 µM; TGI [31]: > 100 µM; GI50 [32]: 5.25 µM; TGI [32]: 20.5 µM; GI50 [33]: 6.04 µM; TGI [33]: 24.4 µM; GI50 [34]: 21.3 µM; TGI [34]: 78.1 µM; GI50 [35]: 10.2 µM; TGI [35]: 30.4 µM; GI50 [36]: 20.8 µM; TGI [36]: > 100 µM; GI50 [37]: 8.83 µM; TGI [37]: 25.9 µM; GI50 [38]: 36.8 µM; TGI [38]: > 100 µM; GI50 [39]: 14.7 µM; TGI [39]: 36.9 µM; GI50 [40]: 12.8 µM; TGI [40]: 33.1 µM; GI50 [41]: 7.27 µM; TGI [41]: 35.9 µM; GI50 [42]: 17.1 µM; TGI [42]: > 100 µM; GI50 [43]: 14.1 µM; TGI [43]: 35.4 µM; GI50 [44]: 7.1 µM; TGI [44]: > 100 µM; GI50 [45]: 7.97 µM; TGI [45]: > 100 µM; GI50 [46]: 11.7 µM; TGI [46]: 58.5 µM; GI50 [47]: 7.81 µM; TGI [47]: 32.7 µM; GI50 [48]: 21.9 µM; TGI [48]: 55.6 µM; GI50 [49]: 11.1 µM; TGI [49]: 33 µM; GI50 [50]: 29.1 µM; TGI [50]: > 100 µM

Question: What does the source list for `CC(C)CC1NC(=O)C(Cc2ccccc2)NC(=O)C(Cc2ccccc2)NC(=O)C(NC(=O)C(Cc2ccc(OCc3ccccc3)cc2)NC(=O)OCc2ccccc2)CCNC1=O` (centres undefined) (Cbz-Y(Bn)[Dab]FFL; lactam 2-C; configuration not given here)?
Answer: TGI [51]: > 100 µM; TGI [24]: > 100 µM; TGI [25]: > 100 µM; TGI [48]: 84.7 µM
